In US8106055B2, “Substituted amide compounds” (Gruenenthal GmbH, priority 2007, dated 2012):
Like-named read-outs stand apart in the source and are kept apart here.

What was measured:
human μ opiate receptor = biological target: T1, human μ opiate receptor (Homo sapiens, UniProt P35372); assay: Affinity for the human μ opiate receptor ([3H]-naloxone displacement, CHO-K1 receptor membrane preparation, SPA); format: binding; details: 1.5 h, Table 2; test concentration 1 μM; read-out: μ receptor
T1 construct: purchased PerkinElmer Life Sciences, Zaventem, Belgium RB-HOM; host or cells: CHO-K1 cells (membrane preparation)
T1 sequence (P35372 whole entry): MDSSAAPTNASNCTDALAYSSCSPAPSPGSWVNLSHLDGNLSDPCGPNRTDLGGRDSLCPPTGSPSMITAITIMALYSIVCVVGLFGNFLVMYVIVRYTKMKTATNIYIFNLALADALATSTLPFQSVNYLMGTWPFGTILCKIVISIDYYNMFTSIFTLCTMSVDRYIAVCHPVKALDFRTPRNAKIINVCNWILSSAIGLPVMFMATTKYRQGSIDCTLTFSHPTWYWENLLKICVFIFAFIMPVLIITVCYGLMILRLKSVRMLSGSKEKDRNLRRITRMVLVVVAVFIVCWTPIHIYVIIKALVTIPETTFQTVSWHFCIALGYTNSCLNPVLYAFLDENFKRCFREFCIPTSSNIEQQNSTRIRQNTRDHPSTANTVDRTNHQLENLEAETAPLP
Protocol: Binding data of the compounds on the μ opioid receptor and data on the inhibition of reuptake of serotonin (5-HT) are given in Table 1. The data for the μ receptor were measured at a test concentration of 1 μM, and those for the serotonin reuptake at 10 μM. The values are stated in % inhibition.
Investigation of the Activity of the Compounds of the Invention Method for Determining the Affinity for the Human μ Opiate Receptor
The receptor affinity for the human p opiate receptor is determined in a homogeneous set-up in microtitre plates. For this, dilution series of the substances to be tested are incubated with a receptor membrane preparation (15-40 μg of protein/250 μl of incubation batch) of CHO-K1 cells which express the human p opiate receptor (RB-HOM receptor membrane preparation from PerkinElmer Life Sciences, Zaventem, Belgium) in the presence of 1 nmol/l of the radioactive ligand [^3H]-naloxone (NET719, PerkinElmer Life Sciences, Zaventem, Belgium) and 1 mg of WGA-SPA-Beads (wheat germ agglutinin SPA beads from Amersham/Pharmacia, Freiburg, Germany) in a total volume of 250 μl for 90 minutes at room temperature. 50 mmol/l of Tris-HCl supplemented with 0.06% of bovine serum albumin is used as the incubation buffer. 100 μmol/l of naloxone are additionally added for determination of the non-specific binding. After the end of the ninety-minute incubation time, the microtitre plates are centrifuged for 20 minutes at 1,000 g and the radioactivity is measured in a β-counter (Microbeta-Trilux, PerkinElmer Wallac, Freiburg, Germany). The percentage displacement of the radioactive ligand from its binding to the human p opiate receptor is determined at a concentration of the test substances of 1 μmol/l and stated as the percentage inhibition of the specific binding. Starting from the percentage displacement by various concentrations of the test substances, IC50 inhibitory concentrations which cause a 50 percent displacement of the radioactive ligand are calculated. By conversion by means of the Cheng-Prusoff relationship, Ki values for the test substances are obtained.

[1] = biological target: T2, bradykinin 1 receptor (B1R) of the rat (Rattus norvegicus, UniProt P97583); assay: Functional investigation on the rat bradykinin 1 receptor (B1R), Ca2+ FLIPR assay in CHO K1 rB1R cells; format: cell-based
T2 construct: expressed in transfected cells; host or cells: CHO K1 cells
T2 sequence (P97583 1-337): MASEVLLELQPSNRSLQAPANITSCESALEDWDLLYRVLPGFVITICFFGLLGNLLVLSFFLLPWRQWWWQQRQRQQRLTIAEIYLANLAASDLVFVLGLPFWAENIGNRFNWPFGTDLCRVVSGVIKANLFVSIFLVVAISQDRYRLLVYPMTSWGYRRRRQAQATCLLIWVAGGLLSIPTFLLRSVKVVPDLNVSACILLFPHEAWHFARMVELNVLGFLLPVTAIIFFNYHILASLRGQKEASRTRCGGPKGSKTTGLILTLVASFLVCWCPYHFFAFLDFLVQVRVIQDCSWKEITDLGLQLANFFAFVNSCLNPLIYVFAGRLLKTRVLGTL
Method in brief: (§1)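 Fluo-4 Ca2+ readout, peak fluorescence. Stable CHO K1 transfectants; compound pre-incubated 10-20 min, then EC80 agonist—Lys-Des-Arg9-BK for hB1R, Des-Arg9-BK for rB1R. % inhibition vs maximal inhibition; IC50 from multiple concentrations, duplicate/triplicate, ≥2 independent runs.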

[2] = biological target: T3, human bradykinin 1 receptor (B1R) (Homo sapiens, UniProt P46663); assay: Functional investigation on the human bradykinin 1 receptor (B1R), Ca2+ FLIPR assay in CHO K1 hB1R cells; format: cell-based; details: for B1R Ant. h [10 μM] % Inhibition: B1R antagonism human
T3 construct: expressed in transfected cells; host or cells: CHO K1 cells
T3 sequence (P46663 1-353): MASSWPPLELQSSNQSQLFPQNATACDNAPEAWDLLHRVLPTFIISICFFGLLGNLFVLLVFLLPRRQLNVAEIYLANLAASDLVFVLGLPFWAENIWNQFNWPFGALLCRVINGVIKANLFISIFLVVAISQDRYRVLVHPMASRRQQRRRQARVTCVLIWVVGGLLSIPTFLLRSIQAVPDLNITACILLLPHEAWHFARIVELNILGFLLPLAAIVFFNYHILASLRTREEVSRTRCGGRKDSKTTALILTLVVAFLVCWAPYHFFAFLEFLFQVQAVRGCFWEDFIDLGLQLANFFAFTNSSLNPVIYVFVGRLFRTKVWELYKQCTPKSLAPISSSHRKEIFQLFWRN
Method in brief: as §1

[3] = test substance 10 μM, Ca2+ FLIPR, CHO K1 hB1R cells
[4] = CHO-K1, B1R antagonism rat, test substance 10 μM, Ca2+ FLIPR, CHO K1 rB1R cells, read-out: B1R Ant. r [10 μM] % Inhibition
[5] = CHO-K1, B1R antagonism human, test substance 10 μM, Ca2+ FLIPR, CHO K1 hB1R cells, read-out: B1R Ant. h [10 μM] % Inhibition
[6] = CHO-K1, read-out: B1R Ant. r [10 μM] % Inhibition
[7] = CHO-K1, read-out: B1R Ant. h [10 μM] % Inhibition

Row | Compound | inhibition at 1 µM (human μ opiate receptor) | B1R Ant. r [10 μM] % Inhibition ([1]; B1R antagonism rat, test substance 10 μM, Ca2+ FLIPR, CHO K1 rB1R cells) | B1R Ant. h [10 μM] % Inhibition [2, 3] | inhibition at 10 µM [1, 4] | inhibition at 10 µM [2, 5] | inhibition at 10 µM [1, 6] | inhibition at 10 µM [2, 7]
1 | COc1cc(C)c(S(=O)(=O)N(C)CCOCC(=O)NC2CCC(C(c3ccccc3)N(C)C)CC2)c(C)c1C (centres unmarked) [Example 597, N-[4-(dimethylaminophenylmethyl)-cyclohexyl]-2-{2-[(4-methoxy-2,3,6-trimethylbenzenesulfonyl)-methylamino]-ethoxy}-acetamide] | 87% | −22% | 72% |  |  |  | 
2 | CN(C)C(Cc1ccccc1)C1CCC(NC(=O)COCCN(C)S(=O)(=O)c2c(Cl)cc(Cl)cc2Cl)CC1 (centres unmarked) [Example 616, N-[4-(1-dimethylamino-2-phenylethyl)-cyclohexyl]-2-{2-[methyl-(2,4,6-trichlorobenzenesulfonyl)-amino]-ethoxy}-acetamide] | 64% |  |  | 43% | 100% |  | 
3 | COc1cc(C)c(S(=O)(=O)N(C)CCOCC(=O)NC2CCC(C(c3ccccc3)N3CCCCC3)CC2)c(C)c1C (centres unmarked) [Example 617, 2-{2-[(4-methoxy-2,3,6-trimethylbenzenesulfonyl)-methylamino]-ethoxy}-N-[4-(phenylpiperidin-1-yl-methyl)-cyclohexyl]-acetamide] | 29% |  |  | 48% | 86% |  | 
4 | COc1cc(C)c(S(=O)(=O)N(C)CCOCC(=O)NC2CCC(C(c3ccccc3)N3CCCC3)CC2)c(C)c1C (centres unmarked) [Example 618, 2-{2-[(4-methoxy-2,3,6-trimethylbenzenesulfonyl)-methylamino]-ethoxy}-N-[4-(phenylpyrrolidin-1-yl-methyl)-cyclohexyl]-acetamide] | 43% |  |  | 3% | 95% |  | 
5 | COc1cc(C)c(S(=O)(=O)N(C)CCOCC(=O)NC2CCC(C(c3ccccc3)N3CCOCC3)CC2)c(C)c1C (centres unmarked) [Example 619, 2-{2-[(4-methoxy-2,3,6-trimethylbenzenesulfonyl)-methylamino]-ethoxy}-N-[4-(morpholin-4-yl-phenylmethyl)-cyclohexyl]-acetamide] | -11% |  |  | 12% | 56% |  | 
6 | CN(C)C(c1ccccc1)C1CCC(NC(=O)CCOCN(C)S(=O)(=O)c2c(Cl)cc(Cl)cc2Cl)CC1 (centres unmarked) [Example 620, N-[4-(dimethylaminophenylmethyl)-cyclohexyl]-3-{[methyl-(2,4,6-trichlorobenzenesulfonyl)-amino]-methoxy}-propionamide] | 92% |  |  | 73% | 103% |  | 
7 | CN(C)C(c1ccccc1)C1CCC(CNC(=O)COC2CCCN(S(=O)(=O)c3c(Cl)cc(Cl)cc3Cl)C2)CC1 (centres unmarked) [Example 621, N-[4-(dimethylaminophenylmethyl)-cyclohexylmethyl]-2-[1-(2,4,6-trichlorobenzenesulfonyl)-piperidin-3-yloxy]-acetamide] | 90% |  |  | 0% | 88% |  | 
8 | CN(C)C(c1ccccc1)C1CCC(CNC(=O)COCC2CCCN2S(=O)(=O)c2c(Cl)cc(Cl)cc2Cl)CC1 (centres unmarked) [Example 622, N-[4-(dimethylaminophenylmethyl)-cyclohexylmethyl]-2-[1-(2,4,6-trichlorobenzenesulfonyl)-pyrrolidin-2-ylmethoxy]-acetamide] | 96% |  |  | 68% | 106% |  | 
9 | COc1cc(C)c(S(=O)(=O)N(C)CCOCC(=O)NCC2CCC(C(c3ccccc3)N(C)C)CC2)c(C)c1C (centres unmarked) [Example 623, N-[4-(dimethylaminophenylmethyl)-cyclohexylmethyl]-2-{2-[(4-methoxy-2,3,6-trimethylbenzenesulfonyl)-methylamino]-ethoxy}-acetamide] | 93% |  | 84% | 41% |  |  | 
10 | CN(C)C(c1ccccc1)C1CCC(CNC(=O)CCOCN(C)S(=O)(=O)c2c(Cl)cc(Cl)cc2Cl)CC1 (centres unmarked) [Example 624, N-[4-(dimethylaminophenylmethyl)-cyclohexylmethyl]-3-{[methyl-(2,4,6-trichlorobenzenesulfonyl)-amino]-methoxy}-propionamide] | 98% |  |  | 81% | 104% |  | 
11 | COc1ccccc1-c1noc(C(=O)NCC(=O)NCC2CCC(C(c3cccc(F)c3)N(C)C)CC2)n1 (centres unmarked) [Example 787, 3-(2-methoxy-phenyl)-[1,2,4]oxadiazole-5-carboxylic acid [({4-[dimethylamino-(3-fluoro-phenyl)-methyl]-cyclohexylmethyl}-carbamoyl)-methyl]-amide] |  |  |  | 11% | 19% |  | 
12 | CN(C)C(CCc1ccccc1)C1CCC(NC(=O)CCNC(=O)c2nc(-c3ccc(Cl)cc3Cl)no2)CC1 (centres unmarked) [Example 788, 3-(2,4-dichloro-phenyl)-[1,2,4]oxadiazole-5-carboxylic acid {2-[4-(1-dimethylamino-3-phenyl-propyl)-cyclohexylcarbamoyl]-ethyl}-amide] |  |  |  | 11% | 90% |  | 
13 | COc1ccc(-c2noc(C(=O)NCCC(=O)NC3CCC(C(CCc4ccccc4)N(C)C)CC3)n2)cc1OC (centres unmarked) [Example 789, 3-(3,4-dimethoxy-phenyl)-[1,2,4]oxadiazole-5-carboxylic acid {2-[4-(1-dimethylamino-3-phenyl-propyl)-cyclohexylcarbamoyl]-ethyl}-amide] |  |  |  | -6% | -11% |  | 
14 | CN(C)C(CCc1ccccc1)C1CCC(NC(=O)CNC(=O)c2nc(-c3cc(Cl)cc(Cl)c3)no2)CC1 (centres unmarked) [Example 790, 3-(3,5-dichloro-phenyl)-[1,2,4]oxadiazole-5-carboxylic acid {[4-(1-dimethylamino-3-phenyl-propyl)-cyclohexylcarbamoyl]-methyl}-amide] |  |  |  | 11% | 35% |  | 
15 | CN(C)C(CCc1ccccc1)C1CCC(NC(=O)CNC(=O)c2nc(-c3ccccn3)no2)CC1 (centres unmarked) [Example 791, 3-pyridin-2-yl-[1,2,4]oxadiazole-5-carboxylic acid {[4-(1-dimethylamino-3-phenyl-propyl)-cyclohexylcarbamoyl]-methyl}-amide] |  |  |  |  |  | 16% | -3%
16 | CN(C)C(CCc1ccccc1)C1CCC(NC(=O)CCNC(=O)c2nc(-c3ccc4c(c3)OCO4)no2)CC1 (centres unmarked) [Example 792, 3-benzo[1,3]dioxol-5-yl-[1,2,4]oxadiazole-5-carboxylic acid {2-[4-(1-dimethylamino-3-phenyl-propyl)-cyclohexylcarbamoyl]-ethyl}-amide] |  |  |  |  |  | 2% | 9%
17 | CN(C)C(CCc1ccccc1)C1CCC(NC(=O)CNC(=O)c2nc(-c3c(Cl)cccc3Cl)no2)CC1 (centres unmarked) [Example 793, 3-(2,6-dichloro-phenyl)-[1,2,4]oxadiazole-5-carboxylic acid {[4-(1-dimethylamino-3-phenyl-propyl)-cyclohexylcarbamoyl]-methyl}-amide] |  |  |  | 6% | 104% |  | 
